Seven cell lines from the supplement of paper PMC10307832 can be followed below.

What all share (experiment): relative viability (nuclei count vs DMSO), 5 days (fraction); higher = more cells survive
Compound in test [1]: COc1cc2ncn(-c3cc(OCc4ccccc4C(F)(F)F)c(C(N)=O)s3)c2cc1OC + COc1cc2c(Oc3ccc(NC(=O)C4(C(=O)Nc5ccc(F)cc5)CC4)cc3F)ccnc2cc1OCCCN1CCOCC1 [Foretinib] (partner 0.25 µM)
In outline:
(§1)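 The day after seeding in 1536-well plates, lung cancer cell lines were treated by pin tool with a single drug, or with a fixed anchor-drug dose together with five library-drug doses (not always all listed) in √10 steps. After 5 days, a combined fix-and-stain solution (final 0.05% Triton X-100, 1% formaldehyde, 1 ug/ml Hoechst) was added. Nuclei counted on 4× images gave relative viability as treated counts over vehicle counts, reported as the median of duplicate plates.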

Compound in test [2]: COc1cc2ncn(-c3cc(OCc4ccccc4C(F)(F)F)c(C(N)=O)s3)c2cc1OC + Cc1nc(NC(=O)N2CCC[C@H]2C(N)=O)sc1-c1ccnc(C(C)(C)C(F)(F)F)c1 [Alpelisib] (partner 2 µM)
In outline:
as §1

Compound in test [3]: COc1cc2ncn(-c3cc(OCc4ccccc4C(F)(F)F)c(C(N)=O)s3)c2cc1OC + Nc1nc2[nH]cc(CCc3ccc(C(=O)N[C@@H](CCC(=O)O)C(=O)O)cc3)c2c(=O)[nH]1 [Pemetrexed] (partner 0.2 µM)
In outline:
as §1

Compound in test [4]: COc1cc2ncn(-c3cc(OCc4ccccc4C(F)(F)F)c(C(N)=O)s3)c2cc1OC + O=C(c1cc(Cc2n[nH]c(=O)c3ccccc23)ccc1F)N1CCN(C(=O)C2CC2)CC1 [Olaparib] (partner 8 µM)
In outline: as §1

For PC-14, the relative viability in test [1] (first compound 0.05 µM) was determined as 0.934; in test [1] (first compound 0.1581 µM), 0.929; in test [1] (first compound 0.5 µM), 0.784; in test [1] (first compound 5 µM), 0.629; in test [2] (first compound 0.05 µM), 0.833; in test [2] (first compound 0.1581 µM) it was 0.944. Further, the relative viability in test [2] (first compound 0.5 µM) is 0.768; in test [2] (first compound 1.581 µM), 0.0614; in test [2] (first compound 5 µM), 0.135; in test [3] (first compound 0.05 µM), 0.132; in test [3] (first compound 0.1581 µM), 0.148; in test [3] (first compound 0.5 µM) it was 0.126. The relative viability in test [3] (first compound 1.581 µM) is 0.048; in test [3] (first compound 5 µM), 0.0388; in test [4] (first compound 0.05 µM), 0.216; in test [4] (first compound 0.1581 µM) it was 0.246; in test [4] (first compound 0.5 µM) it was 0.0786; in test [4] (first compound 1.581 µM), 0.0384. Also, the relative viability in test [4] (first compound 5 µM) was 0.0696.

As to NCI-H1437, the relative viability in test [1] (first compound 0.05 µM) is 1.38; in test [1] (first compound 0.1581 µM), 1.17; in test [1] (first compound 0.5 µM), 0.456; in test [1] (first compound 1.581 µM), 0.267; in test [1] (first compound 5 µM) it was 0.194; in test [2] (first compound 0.05 µM), 1.11. For the same cell line, the relative viability in test [2] (first compound 0.1581 µM) is 0.959; in test [2] (first compound 0.5 µM) it was 0.187; in test [2] (first compound 1.581 µM), 0.12; in test [2] (first compound 5 µM), 0.0887; in test [3] (first compound 0.05 µM), 0.317; in test [3] (first compound 0.1581 µM), 0.32. Further, the relative viability in test [3] (first compound 0.5 µM) is 0.221; in test [3] (first compound 1.581 µM), 0.232; in test [3] (first compound 5 µM) it was 0.179; in test [4] (first compound 0.05 µM), 0.658; in test [4] (first compound 0.1581 µM), 0.511; in test [4] (first compound 0.5 µM) it was 0.272. Also, the relative viability was 0.232 in test [4] (first compound 1.581 µM) and 0.194 in test [4] (first compound 5 µM).

Take NCI-H2170: the relative viability in test [1] (first compound 0.05 µM) is 0.942; in test [1] (first compound 0.1581 µM), 0.985; in test [1] (first compound 0.5 µM), 0.468; in test [1] (first compound 1.581 µM) it was 0.269; in test [1] (first compound 5 µM), 0.202; in test [2] (first compound 0.05 µM) it was 0.789. Besides, the relative viability in test [2] (first compound 0.1581 µM) stood at 0.799; in test [2] (first compound 0.5 µM), 0.41; in test [2] (first compound 1.581 µM), 0.176; in test [2] (first compound 5 µM), 0.18; in test [3] (first compound 0.05 µM), 0.251; in test [3] (first compound 0.1581 µM), 0.268. For the same cell line, the relative viability in test [3] (first compound 0.5 µM) is 0.26; in test [3] (first compound 1.581 µM) it was 0.184; in test [3] (first compound 5 µM), 0.162; in test [4] (first compound 0.05 µM) it was 0.566; in test [4] (first compound 0.1581 µM), 0.444; in test [4] (first compound 0.5 µM), 0.166. Further, the relative viability turned out to be 0.168 in test [4] (first compound 1.581 µM) and 0.148 in test [4] (first compound 5 µM).

Turning to LCLC-103H, the relative viability in test [1] (first compound 0.05 µM) was found to be 0.646; in test [1] (first compound 0.1581 µM), 0.831; in test [1] (first compound 0.5 µM), 0.537; in test [1] (first compound 1.581 µM), 0.199; in test [1] (first compound 5 µM) it was 0.131; in test [2] (first compound 0.05 µM), 0.966. In addition, the relative viability in test [2] (first compound 0.1581 µM) came out at 1.04; in test [2] (first compound 0.5 µM), 0.997; in test [2] (first compound 1.581 µM), 0.389; in test [2] (first compound 5 µM) it was 0.248; in test [3] (first compound 0.05 µM) it was 0.449; in test [3] (first compound 0.1581 µM) it was 0.48. Besides, the relative viability in test [3] (first compound 0.5 µM) stood at 0.442; in test [3] (first compound 1.581 µM), 0.27; in test [3] (first compound 5 µM), 0.195; in test [4] (first compound 0.05 µM) it was 0.687; in test [4] (first compound 0.1581 µM) it was 0.768; in test [4] (first compound 0.5 µM), 0.651. The results for the relative viability in test [4] (first compound 1.581 µM) and in test [4] (first compound 5 µM) were 0.281 and 0.212, respectively.

With NCI-H441, the relative viability worked out at 1.03 in test [1] (first compound 0.05 µM); 0.871 in test [1] (first compound 0.1581 µM); 0.266 in test [1] (first compound 0.5 µM); 0.249 in test [1] (first compound 1.581 µM); 0.226 in test [1] (first compound 5 µM); 0.771 in test [2] (first compound 0.05 µM). The relative viability in test [2] (first compound 0.1581 µM) amounted to 0.506; in test [2] (first compound 0.5 µM), 0.161; in test [2] (first compound 1.581 µM), 0.177; in test [2] (first compound 5 µM), 0.156; in test [3] (first compound 0.05 µM) it was 0.248; in test [3] (first compound 0.1581 µM), 0.27. The relative viability in test [3] (first compound 0.5 µM) came to 0.189; in test [3] (first compound 1.581 µM) it was 0.148; in test [3] (first compound 5 µM) it was 0.158; in test [4] (first compound 0.05 µM), 0.349; in test [4] (first compound 0.1581 µM), 0.34; in test [4] (first compound 0.5 µM), 0.242. For the same cell line, the relative viability in test [4] (first compound 1.581 µM) turned out to be 0.175; in test [4] (first compound 5 µM) it was 0.146.

For SW 1573, the relative viability stood at 0.927 in test [1] (first compound 0.05 µM); 0.94 in test [1] (first compound 0.1581 µM); 0.825 in test [1] (first compound 0.5 µM); 0.157 in test [1] (first compound 1.581 µM); 0.567 in test [1] (first compound 5 µM); 0.828 in test [2] (first compound 0.05 µM). Further, the relative viability in test [2] (first compound 0.1581 µM) came out at 0.669; in test [2] (first compound 0.5 µM), 0.629; in test [2] (first compound 1.581 µM), 0.326; in test [2] (first compound 5 µM) it was 0.182; in test [3] (first compound 0.05 µM), 0.839; in test [3] (first compound 0.1581 µM), 0.742. The relative viability was 0.594 in test [3] (first compound 0.5 µM); 0.149 in test [3] (first compound 1.581 µM); 0.136 in test [3] (first compound 5 µM); 0.442 in test [4] (first compound 0.05 µM); 0.428 in test [4] (first compound 0.1581 µM); 0.188 in test [4] (first compound 0.5 µM). The relative viability in test [4] (first compound 1.581 µM) is 0.103; in test [4] (first compound 5 µM), 0.119.

With BEN, the relative viability stood at 0.559 in test [1] (first compound 0.05 µM); 0.557 in test [1] (first compound 0.1581 µM); 0.623 in test [1] (first compound 0.5 µM); 0.271 in test [1] (first compound 1.581 µM); 0.307 in test [1] (first compound 5 µM); 1.18 in test [2] (first compound 0.05 µM). The relative viability amounted to 1 in test [2] (first compound 0.1581 µM); 0.81 in test [2] (first compound 0.5 µM); 0.262 in test [2] (first compound 1.581 µM); 0.391 in test [2] (first compound 5 µM); 0.702 in test [3] (first compound 0.05 µM); 0.706 in test [3] (first compound 0.1581 µM). Further, the relative viability in test [3] (first compound 0.5 µM) was 0.667; in test [3] (first compound 1.581 µM), 0.515; in test [3] (first compound 5 µM) it was 0.388; in test [4] (first compound 0.05 µM) it was 1.11; in test [4] (first compound 0.1581 µM), 1.01; in test [4] (first compound 0.5 µM), 0.636. The values for the relative viability in test [4] (first compound 1.581 µM) and in test [4] (first compound 5 µM) were 0.425 and 0.359, respectively.
